The record followed here is patent US20150272939A1, “Identification of Small Molecule Inhibitors of Jumonji AT-Rich Interactive Domain 1A (JARID1A) and 1B (JARID1B) Histone Demethylase” (Yale University, priority 2012, published 2015).

The nature of experiment [1]: AlphaScreen counterscreen against bio-H3K4me2 peptide in the absence of enzyme (artifact signal).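 On all read-outs here: counterscreen run without enzyme against bio-H3K4me2 peptide to remove false positive hits from the JARID1 demethylase AlphaScreen screen.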 To be noted: for Artifact Signal (percent): effect of the compound when incubated with bio-H3K4me2 peptide (counterscreen, no enzyme); for Artifact signal: effect of the compound when it is incubated with bio-H3K4me2 peptide: counterscreen, no enzyme.
The next experiment concerns the target T1, JARID1B (Homo sapiens, UniProt Q9UGL1).
T1 construct: The FLAG tagged full length JARID1B enzyme was expressed in Sf21 insect cells using FLAG-JARID1B baculoviruses; FLAG (N); made in house; host or cells: Sf21 insect cells (baculovirus)
Kind of experiment: FLAG-JARID1B histone demethylase assay with AlphaScreen detection (HTS and dose response).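 On Assay Signal (percent): compound tested at 20 µM.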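 On Assay − Artifact Signal (percent): compound tested at 20 µM.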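 On all read-outs here: FLAG-tagged JARID1B at 4 nM acting on a biotinylated H3K4me3 peptide, demethylation read by AlphaScreen luminescence, with hits checked against bio-H3K4me2 without enzyme.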 In kind it is biochemical. Conditions: for inhibition at 20 µM: read-out: Inhibitory effect (percent). On the technique in general: Bead proximity is the source of the signal in Alpha formats.

The mark [2] stands for this setting: assay signal minus artifact signal.
Setting [3] is: high-throughput screen, compound 20 μM, standard demethylase conditions (10 μM α-KG, 50 μM Fe (II)).
Where [4] appears, read: validation of HTS actives, effect of compound in JARID1B AlphaScreen assay.
The mark [5] stands for this setting: validation of HTS actives, total signal before subtraction of artifact signal.

Like-named read-outs stand apart in the source and are kept apart here.

T1 sequence (Q9UGL1 whole entry): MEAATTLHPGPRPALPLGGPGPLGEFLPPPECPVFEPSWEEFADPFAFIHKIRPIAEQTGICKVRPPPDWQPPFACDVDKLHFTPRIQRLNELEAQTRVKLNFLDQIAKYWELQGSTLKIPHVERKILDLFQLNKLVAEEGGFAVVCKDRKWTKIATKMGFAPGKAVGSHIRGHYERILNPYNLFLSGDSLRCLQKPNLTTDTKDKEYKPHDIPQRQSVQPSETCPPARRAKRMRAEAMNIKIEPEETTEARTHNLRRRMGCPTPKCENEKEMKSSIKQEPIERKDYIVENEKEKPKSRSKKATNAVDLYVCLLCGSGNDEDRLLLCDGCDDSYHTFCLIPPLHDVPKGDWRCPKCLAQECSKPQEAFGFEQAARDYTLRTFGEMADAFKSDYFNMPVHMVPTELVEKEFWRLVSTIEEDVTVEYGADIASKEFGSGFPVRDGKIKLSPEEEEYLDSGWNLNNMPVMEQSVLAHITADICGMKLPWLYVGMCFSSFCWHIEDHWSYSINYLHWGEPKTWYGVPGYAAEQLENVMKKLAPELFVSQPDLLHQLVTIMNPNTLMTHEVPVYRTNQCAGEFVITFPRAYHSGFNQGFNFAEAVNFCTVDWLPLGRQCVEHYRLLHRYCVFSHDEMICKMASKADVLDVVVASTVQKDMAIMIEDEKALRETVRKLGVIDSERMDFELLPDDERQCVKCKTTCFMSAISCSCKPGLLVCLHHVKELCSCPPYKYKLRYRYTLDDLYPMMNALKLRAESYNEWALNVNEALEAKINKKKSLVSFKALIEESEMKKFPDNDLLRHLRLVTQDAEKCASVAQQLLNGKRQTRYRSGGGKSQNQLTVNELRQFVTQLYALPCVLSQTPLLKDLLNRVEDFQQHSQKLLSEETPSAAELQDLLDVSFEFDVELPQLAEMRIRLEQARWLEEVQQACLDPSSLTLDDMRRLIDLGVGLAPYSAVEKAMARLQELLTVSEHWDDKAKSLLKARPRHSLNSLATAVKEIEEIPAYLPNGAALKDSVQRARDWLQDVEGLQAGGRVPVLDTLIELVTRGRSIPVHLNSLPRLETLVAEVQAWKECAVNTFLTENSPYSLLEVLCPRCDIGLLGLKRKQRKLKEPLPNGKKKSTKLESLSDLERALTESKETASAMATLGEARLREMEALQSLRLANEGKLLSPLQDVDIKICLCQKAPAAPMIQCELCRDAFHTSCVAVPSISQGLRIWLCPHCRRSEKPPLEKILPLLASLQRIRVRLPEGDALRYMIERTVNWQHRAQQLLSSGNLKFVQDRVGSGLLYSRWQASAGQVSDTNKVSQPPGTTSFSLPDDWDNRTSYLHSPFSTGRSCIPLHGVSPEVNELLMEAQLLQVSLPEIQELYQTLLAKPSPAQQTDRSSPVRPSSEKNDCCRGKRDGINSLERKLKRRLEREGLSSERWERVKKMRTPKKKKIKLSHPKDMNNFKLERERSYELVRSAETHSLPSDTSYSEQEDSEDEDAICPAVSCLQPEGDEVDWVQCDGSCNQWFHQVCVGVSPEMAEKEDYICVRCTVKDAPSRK

`COc1ccc(C)cc1NC(c1cccnc1)c1ccc2cccnc2c1O` (stereo not drawn) [YU172175]: the “Artifact Signal (percent)” value in experiment [1] stood at 36.93%. Besides, on JARID1B (setting [2]), the “Assay − Artifact Signal (percent)” value is 11.16%. Further, the inhibition at 20 µM at JARID1B (setting [3]) worked out at 48.5%. Besides, the “Assay Signal (percent)” value on JARID1B (setting [4]) amounted to 48.09%.
For `Cc1cccc(NC(c2ccccn2)c2ccc3cccnc3c2O)n1` (stereo not drawn) [YU172178], in that order: 37.93%, 8.53%, 72.3% and 46.45%.
For `Cc1cccc(NC(c2cccnc2)c2ccc3cccnc3c2O)n1` (stereo not drawn) [YU172179], in that order: 53.31%, 10.43%, 58.1% and 63.74%.
For `Cc1[nH]c2nc(C(F)(F)F)nn2c(=O)c1C` [YU172199], in that order: −4.00%, 42.72%, 62.4% and 38.73%.
`c1ccc(-c2nc3ccccn3c2Nc2ccc3c(c2)OCCO3)nc1` [YU172999]: in experiment [1], the “Artifact Signal (percent)” value was 10.03%. The “Assay − Artifact Signal (percent)” value on JARID1B (setting [2]) turned out to be 88.40%. Also, on JARID1B (setting [3]), the inhibition at 20 µM is 96.7%. Moreover, the “Assay Signal (percent)” value on JARID1B (setting [4]) turned out to be 98.42%.
For `Clc1ccc2nc(-c3ccccn3)c(Nc3ccc4c(c3)OCO4)n2c1` [YU173003] the same measures were 3.56%, 37.18%, 83.1% and 42.73%.
In the case of `Clc1ccc2nc(-c3ccccn3)c(Nc3ccc4c(c3)OCCO4)n2c1` [YU173004], the “Artifact Signal (percent)” value in experiment [1] was 0.87%. In addition, on JARID1B (setting [2]), the “Assay − Artifact Signal (percent)” value was determined as 48.80%. Moreover, the inhibition at 20 µM at JARID1B (setting [3]) worked out at 94%. At JARID1B (setting [4]), the “Assay Signal (percent)” value was 49.67%.
With `Cc1noc2c1C(c1ccc(O)c(O)c1)C1=C(CCCC1=O)N2` (stereo not drawn) [YU183529], the “Artifact Signal (percent)” value in experiment [1] amounted to 4.16%. For the same molecule, the “Assay − Artifact Signal (percent)” value on JARID1B (setting [2]) was found to be 36.06%. At JARID1B (setting [4]), the “Assay Signal (percent)” value turned out to be 40.22%.
As to `Cc1noc2c1C(c1ccc(O)c(O)c1)C1=C(CC(C)(C)CC1=O)N2` (stereo not drawn) [YU185530], the “Artifact Signal (percent)” value in experiment [1] amounted to 1.72%. Further, at JARID1B (setting [2]), the “Assay − Artifact Signal (percent)” value is on record as 36.51%. In addition, at JARID1B (setting [3]), the inhibition at 20 µM came to 46.5%. Besides, at JARID1B (setting [4]), the “Assay Signal (percent)” value was determined as 38.23%.
For `CCC(=O)Nc1ccc(N2CCC(C(N)=O)(N3CCCCC3)CC2)c(C(=O)O)c1` [YU208193] the same measures were 16.13%, 11.50%, 46.1% and 27.63%.
Take `CCCCC(=O)Nc1ccc(N2CCC(C(N)=O)(N3CCCCC3)CC2)c(C(=O)O)c1` [YU208194]: the “Artifact signal: effect of the compound when it is incubated with bio-H3K4me2 peptide” value (shortened to “Artifact signal: effect of the compound”) in experiment [1] was 11.63. On JARID1B (setting [3]), the inhibition at 20 µM came out at 63.8%. In addition, the “Validation result of HTS active: effect of the compound in the JARID1B AlphaScreen demethylase assay” value (from here on “Validation result of HTS active”) at JARID1B (setting [5]) is given as 17.11.
On to `CC(=O)Nc1ccc(N2CCC(C(N)=O)(N3CCCCC3)CC2)c(C(=O)O)c1` [YU208195], for which the “Artifact signal: effect of the compound” value in experiment [1] is 8.81. Also, the inhibition at 20 µM on JARID1B (setting [3]) is 52.9%. Besides, the “Validation result of HTS active” value on JARID1B (setting [5]) was found to be 14.20.
For `CCC(=O)Nc1ccc(N2CCCC2)c(C(=O)O)c1` [YU208199], in experiment [1], the “Artifact Signal (percent)” value is reported as 32.96%. Moreover, the “Assay − Artifact Signal (percent)” value at JARID1B (setting [2]) is reported as 17.19%. In addition, the inhibition at 20 µM at JARID1B (setting [3]) is 63.4%. For the same molecule, the “Assay Signal (percent)” value at JARID1B (setting [4]) is given as 50.16%.
Take `O=C(Nc1ccc(N2CCCC2)c(C(=O)O)c1)c1ccc(Br)cc1` [YU208200]: in experiment [1], the “Artifact signal: effect of the compound” value was determined as 20.10. The inhibition at 20 µM on JARID1B (setting [3]) turned out to be 53%. Moreover, the “Validation result of HTS active” value on JARID1B (setting [5]) came out at 24.86.
As for `O=C(Nc1ccc(N2Cc3ccccc3OC(c3ccccc3)C2)c(C(=O)O)c1)c1ccccc1F` (stereo not drawn) [YU208213], in experiment [1], the “Artifact signal: effect of the compound” value was 32.32. Moreover, the “Validation result of HTS active” value on JARID1B (setting [5]) is recorded as 37.72.
`CCC(=O)Nc1ccc(N(C)CCCc2c(C)nn(C)c2C)c(C(=O)O)c1` [YU208228]: in experiment [1], the “Artifact signal: effect of the compound” value is 20.21. Also, the inhibition at 20 µM at JARID1B (setting [3]) worked out at 43.4%. Besides, the “Validation result of HTS active” value on JARID1B (setting [5]) is recorded as 24.80.
For `CC(=O)Nc1ccc(N(C)CCCc2c(C)nn(C)c2C)c(C(=O)O)c1` [YU208230] the same measures were 17.72, 38.5% and 24.45.
On to `CCCCC(=O)Nc1ccc(N(C)CCc2c(C)nn(C)c2C)c(C(=O)O)c1` [YU208232], for which, in experiment [1], the “Artifact Signal (percent)” value was 18.67%. The “Assay − Artifact Signal (percent)” value on JARID1B (setting [2]) is 19.26%. On JARID1B (setting [3]), the inhibition at 20 µM was 50.5%. Besides, the “Assay Signal (percent)” value at JARID1B (setting [4]) stood at 37.92%.
For `O=C(Nc1ccc(N2CCC(c3ccccc3)C2)c(C(=O)O)c1)c1cccc(Cl)c1` (stereo not drawn) [YU208239] the same measures were 26.96%, 9.53%, 50.2% and 36.49%.
For `Cc1ccc(C(=O)Nc2cnc(N3CCN(c4ccccc4Cl)CC3)c(C(=O)O)c2)cc1` [YU208246] the same measures were −0.08%, 10.41%, 44.5% and 10.32%.
Consider `O=C(Nc1cnc(N2CCN(c3ccccc3Cl)CC2)c(C(=O)O)c1)c1ccc(F)cc1` [YU208247], for which the “Artifact signal: effect of the compound” value in experiment [1] is 0.47. Besides, the inhibition at 20 µM on JARID1B (setting [3]) was 51.5%. Moreover, the “Validation result of HTS active” value at JARID1B (setting [5]) is 7.92.
Turning to `CCC(=O)Nc1cnc(N2CCN(c3ccc(Cl)cc3)CC2)c(C(=O)O)c1` [YU208250], the “Artifact Signal (percent)” value in experiment [1] is 7.01%. Further, on JARID1B (setting [2]), the “Assay − Artifact Signal (percent)” value was 14.69%. Moreover, at JARID1B (setting [3]), the inhibition at 20 µM came out at 44.5%. On JARID1B (setting [4]), the “Assay Signal (percent)” value turned out to be 21.70%.
As for `O=c1c(O[C@@H]2O[C@H](CO)[C@@H](O)[C@H](O)[C@H]2O)c(-c2ccc(O)c(O)c2)oc2cc(O)cc(O)c12` [YU221011, Isoquercitrin, reference compound], the “Artifact Signal (percent)” value in experiment [1] turned out to be 15.17%. Moreover, the “Assay − Artifact Signal (percent)” value on JARID1B (setting [2]) turned out to be 36.99%. Also, the inhibition at 20 µM at JARID1B (setting [3]) came out at 45.1%. The “Assay Signal (percent)” value at JARID1B (setting [4]) stood at 52.16%.
For the molecule `O=c1c(O[C@@H]2O[C@H](CO)[C@H](O)[C@H](O)[C@H]2O)c(-c2ccc(O)c(O)c2)oc2cc(O)cc(O)c12` [YU221013, HYPEROSIDE, reference compound], the “Artifact Signal (percent)” value in experiment [1] was determined as 9.46%. The “Assay − Artifact Signal (percent)” value on JARID1B (setting [2]) worked out at 41.83%. Besides, the inhibition at 20 µM at JARID1B (setting [3]) stood at 44.9%. Further, the “Assay Signal (percent)” value at JARID1B (setting [4]) amounted to 51.29%.
With `CCC1=C[C@H]2CN(C1)Cc1c([nH]c3ccccc13)[C@@](C(=O)OC)(c1cc3c(cc1OC)N(C)[C@H]1[C@@](O)(C(=O)OC)[C@H](OC(C)=O)[C@]4(CC)C=CC[N@]5CC[C@]31[C@@H]54)C2.O=C(O)C(O)C(O)C(=O)O` [YU221030, V[…], reference compound], in experiment [1], the “Artifact Signal (percent)” value worked out at 18.13%. Moreover, on JARID1B, the “Assay Signal (percent)” value was determined as 38.77%, the “Assay − Artifact Signal (percent)” value is reported as 20.64% and the inhibition at 20 µM was found to be 42.2%.
`CC[C@]1(O)C[C@H]2CN(CCc3c([nH]c4ccccc34)[C@@](C(=O)OC)(c3cc4c(cc3OC)N(C=O)[C@H]3[C@@](O)(C(=O)OC)[C@H](OC(C)=O)[C@]5(CC)C=CCN6CC[C@]43[C@@H]65)C2)C1.O=S(=O)(O)O` [YU221071, VINCRISTINE SULFATE, reference compound]: the “Artifact signal: effect of the compound” value in experiment [1] was −1.27. Also, at JARID1B, the “Inhibitory effect (percent)” value is recorded as 44.20%, the “Validation effect minus artifact signal” value came to 1.86 and the “Validation result of HTS active” value is recorded as 0.59.
Consider `O=C1C=CC(=O)[C@@H](Br)[C@@H]1Br` [YU221139], for which the “Artifact Signal (percent)” value in experiment [1] turned out to be 7.07%. Also, the “Assay − Artifact Signal (percent)” value at JARID1B (setting [2]) was 23.33%. At JARID1B (setting [3]), the inhibition at 20 µM came to 58.7%. In addition, at JARID1B (setting [4]), the “Assay Signal (percent)” value is recorded as 30.40%.
For `COC(=O)c1cc(Br)c(OCc2ccccc2)c(CO[Si](C(C)(C)C)(C(C)(C)C)C(C)(C)C)c1OCc1ccccc1` [YU221143], in that order: −3.99%, 26.59%, 40.9% and 22.60%.
For the molecule `O=C(O)c1ccnc(C(=O)O)c1` [YU221215, 2,4-Pyridinedicarboxylic Acid, reference compound], the “Artifact Signal (percent)” value in experiment [1] was found to be 3.00%. The “Assay − Artifact Signal (percent)” value on JARID1B (setting [2]) worked out at 96.69%. For the same molecule, the inhibition at 20 µM at JARID1B (high-throughput screen, compound 20 μM, IDs marked *: additional hits under reaction condition with 1 mM α-KG) came out at 40.8%. Further, the “Assay Signal (percent)” value at JARID1B (setting [4]) was 99.69%.
As for “BACITRACIN [YU033699, reference compound]”, in experiment [1], the “Artifact signal: effect of the compound” value was −1.65. In addition, the “Inhibitory effect (percent)” value on JARID1B (setting [3]) was found to be 74.07%. Further, on JARID1B (setting [5]), the “Validation result of HTS active” value stood at 6.01.
In the case of CALCEIN [YU034124, reference compound], the “Artifact Signal (percent)” value in experiment [1] was −3.21%. On JARID1B (setting [2]), the “Assay − Artifact Signal (percent)” value amounted to 36.96%. In addition, the “Inhibitory effect (percent)” value on JARID1B (setting [3]) is listed as 60.48%. Further, the “Assay Signal (percent)” value at JARID1B (setting [4]) was 33.76%.
